Data: US20250051729A1, “METHOD FOR PREPARING HIGHLY DIFFERENTIATED KIDNEY ORGANOIDS” (RGENORGANO BIOTECHNOLOGY CO., LTD., priority 2021, published 2025)
“Also recorded” adds a separate entry of the source.

B1: agalsidase-α: recombinant human agalsidase-α used as recombinant enzyme replacement therapy (ERT) (protein, UniProt P06280 32-429, looked up)
Alpha-galactosidase A: LDNGLARTPTMGWLHWERFMCNLDCQEEPDSCISEKLFMEMAELMVSEGWKDAGYEYLCIDDCWMAPQRDSEGRLQADPQRFPHGIRQLANYVHSKGLKLGIYADVGNKTCAGFPGSFGYYDIDAQTFADWGVDLLKFDGCYCDSLENLADGYKHMSLALNRTGRSIVYSCEWPLYMWPFQKPNYTEIRQYCNHWRNFADIDDSWKSIKSILDWTSFNQERIVDVAGPGGWNDPDMLVIGNFGLSWNQQVTQMALWAIMAAPLFMSNDLRHISPQAKALLQDKDVIAINQDPLGKQGYQLRQGDNFEVWERPLSGLAWAVAMINRQEIGGPRSYTIAVASLGKGVACNPACFITQLLPVKRKLGFYEWTSRLRSHINPTGTVLLQLENTMQMSLKDLL

Key:
[1] = tested on: human iPSC-derived kidney organoids; test: Confocal imaging of PECAM1+ vasculature around NPHS1+ or WT1+ glomerular structure in kidney organoids; format: cell-based; settings: Protocol B: VEGF (days 6, 9, 12, 14) and 10 μM Compound 1 (day 12) added together to Protocol A; FIG. 2A
Procedure: While Protocol B was largely similar to Protocol A, to enhance a vascular network, VEGF (10 ng/ml, 20 ng/ml, 30 ng/ml, and 50 ng/ml each) was treated on days 6, 9, 12, and 14, and to enhance podocyte differentiation, 10 μM Compound 1 was treated on day 12. For immunofluorescent analysis, organoids were fixed on day 18 unless otherwise noted. Specifically, for fixation, equal volumes of PBS (Thermo Fisher Scientific) and 8% paraformaldehyde (Electron Microscopy Sciences) were added to a medium for 15 minutes, and then the sample was washed with PBS three times. Subsequently, the fixed organoid culture was blocked with 5% donkey serum (Millipore)+0.3% Triton-X-100/PBS. Afterward, the blocked organoid culture was incubated in PBS containing 3% bovine serum albumin (Sigma)+ primary antibodies [anti-acetylated tubulin (Sigma-Aldrich T7451, 1:200), anti-collagen IV (Southern Biotech 1340-01, 1:300), anti-cytokeratin 8 (Abcam ab9023, 1:200), anti-GATA3 (R&D AF2605, 1:200), anti-Gb3 (TCI […], 1:200), anti-GLA (Thermo Fisher Scientific PA5-27349, 1:1000), anti-laminin (Sigma-Aldrich L9393. 1:200), anti-LTL (Vector Labs FL-1321, 1:200 dilution), […]32 (BD Pharmingen 555849, 1:200), anti-NPHS1 ([…] (Abcam ab9498, 1:200), anti-TUBA4A (Abcam ab24610, 1:200), and anti-WT1 (Abcam ab89901, 1:200)] overnight, washed, and then incubated with Alexa Fluor secondary antibodies (Invitrogen). […]

[2] = tested on: GLA mutant kidney organoids; test: Immunofluorescent staining of Gb3 (Gb3 positive area) in GLA mutant kidney organoids; format: cell-based, human; settings: GLA mutant kidney organoids (Protocol B) after treatment with agalsidase-α (ERT); FIGS. 4D and 4E
Procedure: For immunofluorescent analysis, organoids were fixed on day 18 unless otherwise noted. Specifically, for fixation, equal volumes of PBS (Thermo Fisher Scientific) and 8% paraformaldehyde (Electron Microscopy Sciences) were added to a medium for 15 minutes, and then the sample was washed with PBS three times. Subsequently, the fixed organoid culture was blocked with 5% donkey serum (Millipore)+0.3% Triton-X-100/PBS. Afterward, the blocked organoid culture was incubated in PBS containing 3% bovine serum albumin (Sigma)+ primary antibodies [anti-acetylated tubulin (Sigma-Aldrich T7451, 1:200), anti-collagen IV (Southern Biotech 1340-01, 1:300), anti-cytokeratin 8 (Abcam ab9023, 1:200), anti-GATA3 (R&D AF2605, 1:200), anti-Gb3 (TCI A2506, 1:200), anti-GLA (Thermo Fisher Scientific PA5-27349, 1:1000), anti-laminin (Sigma-Aldrich L9393. 1:200), anti-LTL (Vector Labs FL-1321, 1:200 dilution), antiMECA32 (BD Pharmingen 555849, 1:200), anti-NPHS1 (R&D AF4269, 1:200), anti-Pecaml (Abcam ab9498, 1:200), anti-TUBA4A (Abcam ab24610, 1:200), and anti-WT1 (Abcam ab89901, 1:200)] overnight, washed, and then incubated with Alexa Fluor secondary antibodies (Invitrogen). Afterward, the resulting organoids were washed and stained with DAPI, or mounted using Vectashield H-1000. Images were obtained using a Zeiss LSM 700 confocal microscope (Carl Zeiss, Germany) and ZEN 3.1 software. […]

[3] = tested on: GLA mutant kidney organoids; test: Immunofluorescent staining of NPHS1, PECAM1 and LTL: vasculopathy phenotype in GLA mutant kidney organoids; format: cell-based, human; settings: GLA mutant kidney organoids produced by Protocol B, ERT; FIG. 4F
Procedure: For immunofluorescent analysis, organoids were fixed on day 18 unless otherwise noted. Specifically, for fixation, equal volumes of PBS (Thermo Fisher Scientific) and 8% paraformaldehyde (Electron Microscopy Sciences) were added to a medium for 15 minutes, and then the sample was washed with PBS three times. Subsequently, the fixed organoid culture was blocked with 5% donkey serum (Millipore)+0.3% Triton-X-100/PBS. […]
Next, the phenotype of the vasculopathy in Fabry disease was determined using GLA mutant kidney organoids produced by Protocol B. Immunofluorescent staining analyses of NPHS1, PECAM1, and LTL were conducted on the wild type, GLA mutant kidney organoids, and human recombinant agalsidase-α-treated GLA mutant kidney organoids.

Row | Molecule | vascularization surrounding the glomerular structure [1] | Gb3 accumulation [2] | vascular network (glomerular angiogenesis and formation of large lumen vessels) [3]
1 | NC(=O)c1ccc(-c2nc(-c3ccc4c(c3)OCO4)c(-c3ccccn3)[nH]2)cc1 [Compound 1, 4-[4-(1,3-benzodioxol-5-yl)-5-pyridin-2-yl-1H-imidazol-2-yl]benzamide, reference compound] | significantly improved | – | –
2 | VEGF | significantly improved | – | –
3 | B1 | – | decreased | restored the vascular network; also recorded: restored a vascular network
